Holding throughout (type): in vivo
In data set [1] the test system is Housefly [Musca domestica (L.)]. Briefly: Housefly insecticide evaluation. Conditions: per 25 female houseflies; mortality after 48 hours. As to the method:
A. Housefly [Musca domestica (L.) ]
The test compound is diluted in acetone and an aliquot is pipetted onto the bottom of a 55 × 15 mm aluminum dish. To insure even spreading on the bottom of the dish, 1 ml of acetone containing 0.02% peanut oil is added. After all the solvent has evaporated, the dish is placed in a circular cardboard cage containing 25 1-day-old female houseflies. The cage is covered on the bottom with cellophane and the top with tulle netting, and contains a sugar-water saturated cotton plug for maintenance of the flies. Mortality is recorded after 48 hours. The primary screening level for this test is 100 micrograms of the test compound per 25 female houseflies.
(§1) For a particular insect, each compound was initially tested at the primary screening level. For the two-spotted mite, the testing stopped at this point. Those compounds showing less than 50% kill are represented in the table by the primary screening level preceded by a "greater than" sign. For those showing more than 50% kill, a "less than" sign is used. For all other insects those compounds showing greater than 50% kill at the primary screening level were then tested at successively lower levels, until the level was found at which approximately 50% kill was achieved. This level is listed as the LD50 (50% lethal dose) value in Table III. For those compounds showing approximately 50% kill at the primary screening level, the primary screening level itself is listed as the LD50.
(§2) In cases where this level was found, the level is reported as the LD50. When the level of 50% kill was not found, the number listed is the highest concentration tested, whether primary screen or higher, preceded by a "greater than" sign to indicate that a higher level than reported must be used to achieve 50% kill.

Data set [2] has as its system Salt-marsh Caterpillar [Estigmene acrea (Druryl)]. Briefly: Salt-marsh caterpillar leaf dip test. Conditions: % by weight in solution, larvae, 48 hours plus 5 days if survivors. As to the method:
G. Salt-marsh Caterpillar [Estigmene acrea (Druryl)]
(§3) A test solution is prepared by dissolving the test compound in a 50-50 acetone-water solution. A section of a curly dock (Rumex crispus) leaf, aproximately 2.5 centimeters wide and 4 centimeters long, is immersed in the test solution for 2-3 seconds, then placed on a wire screen to dry. The dried leaf is placed in a petri dish containing a moistened piece of filter paper, and infested with 5 second-instar salt-marsh caterpillar larvae. Mortality of the larvae is recorded 48 hours later. If surviving larvae are still present, a piece of synthetic media is added to the dish and the larvae are observed for an additional 5 days in order to detect delayed effects of the test compound. The primary screening level for this test is 0.05% by weight of the test compound in the solution.
as §1, §2

Data set [3] concerns Cabbage Looper [Trichoplusia ni (Hubner)]. Briefly: Cabbage looper leaf dip test. Particulars: % by weight in solution, larvae, 48 hours plus 5 days if survivors. As to the method: as §3
H. Cabbage Looper [Trichoplusia ni (Hubner)]
The procedure for cabbage looper larvae is the same as that used for salt-marsh caterpillar larvae, except that a cotyledon of hyzini squash (Calabacita abobrinha) of approximately the same size as the curly dock leaf section is used in place of the latter. The primary screening level for this test is 0.1% by weight of the test compound in the solution.
as §1, §2

Data set [4] relates to Green Peach Aphid [Myzus persicae (Sulzer)]. Briefly: Direct spray assay on green peach aphid. Conditions: % by weight in acetone-water, mortality after 3 days. As to the method: E. Direct Spray Assay on Green Peach Aphid [Myzus persicae (Sulzer)]
A radish plant (Rhaphanus sativus), approximately 2 cm tall, is transplanted into sandy loam soil in a 3-inch clay pot and infested with 25-50 green peach aphids of mixed ages. Twenty-four hours later the plant is sprayed, to the point of runoff, with a 50-50 acetone-water solution of the test compound. The treated plant is held in a greenhouse and mortality is recorded after 3 days. The primary screening level for this test is 0.05% by weight of the test compound in the acetone-water solution.
as §1, §2

The subject of data set [5] is Lygus bug [Lygus hesperus (Knight)]. Briefly: Lygus bug spray insecticide evaluation. Particulars: % by weight in acetone-water spray; adults; mortality after 48 hours. As to the method:
C. Lygus bus [Lygus hesperus (Knight)]
The test compound is dissolved in a 50-50 acetone-water solution. Two cubic centimeters of the solution are sprayed through a DeVilbiss-type EGA hand spray gun into a circular cardboard cage covered on the bottom with cellophane and the top with tulle netting, containing one string bean pod and 10 adult lygus bugs. Percent mortality is recorded after 48 hours. The primary screening level for this test is 0.5% by weight of the test compound in the acetone-water solution.
as §1, §2

Data set [6] relates to Tobacco Budworm [Heliotis virescens (F.)]. Briefly: Tobacco budworm leaf dip test. Conditions: % by weight in solution, larvae, 48 hours plus 5 days if survivors. As to the method: as §3
I. Tobacco Budworm [Heliotis virescens (F.)]
Larvae of the tobacco budworm are used in this test in a procedure identical to that used for salt-marsh caterpillar larvae, except that a Romaine lettace (Latua sativa) leaf section of approximately the same size as the curly dock leaf section is used in place of the latter. The primary screening level for this test is 0.1% by weight of the test compound in the solution.
as §1
In cases where this level was found, the level is reported as the LD50. […]

Data set [7] has as its system German Cockroach [Blatella germanica (Linne)]. Briefly: German cockroach spray insecticide evaluation. Conditions: % by weight in acetone-water spray; nymphs; mortality after 7 days. As to the method: B. German Cockroach [Blatella germanica (Linne)]
The test compound is diluted in a 50-50 acetone-water solution. Two milliliters of the solution are sprayed through a DeVilbiss type EGA hand spray gun into a circular cardboard cage contaning 10 1-month-old German Cockroach nymphs. The test cage is covered on the bottom with cellophane and the top with tulle netting. Percent mortality is recorded after 7 days. The primary screening level for this test is 0.1% by weight of the test compound in the acetone-water solution.
as §1, §2

In data set [8] the test system is Black Bean Aphid [Aphis fabae (Scop.)]. Briefly: Direct spray assay on black bean aphid. Conditions: % by weight in acetone-water, mortality after 3 days. As to the method: D. Direct Spray Assay on Black Bean Aphid [Aphis fabae (Scop.)]
A nasturtium plant (Tropaeolum sp.), approximately 5 cm tall, is transplanted into sandy loam soil in a 3-inch clay pot and infested with 25-50 black bean aphids of mixed ages. Twenty-four hours later the plant is sprayed, to the point of runoff, with a 50-50 acetone-water solution of the test chemical. The treated plant is held in the greenhouse and mortality is recorded after 3 days. The primary screening level for this test is 0.05% by weight of the test compound in the acetone-water solution.
as §1, §2

The test system of data set [9] is Southern House Mosquito [Culex pipiens quinquefasciatus (Say)]. Briefly: Southern house mosquito larvae test. Particulars: ppm by weight in aqueous solution, third-instar larvae, mortality after 48 hours. As to the method:
K. Southern House Mosquito [Culex pipiens quinquefasciatus (Say)]
Insecticidal activity is determined using third-instar larvae of the mosquito (Culex pipiens quinquefasciatus). Ten larvae are placed in a 6-ounce, number 67 Dixie wax paper cup containing 100 milliliters of an aqueous solution of the test chemical. The treated larvae are stored at 70° F, and 48 hours later the mortality is recorded. The primary screening level for this test is 1 ppm by weight of the test compound in the solution.
as §1, §2

Data set [10] deals with Black Bean Aphid [Aphis fabae (Scop.)]. Briefly: Systemic assay on black bean aphid. Conditions: ppm by weight in soil, mortality after seven days. As to the method:
F. Systemic Assay on Black Bean Aphid [Aphis fabae (Scop.)]
The test chemical is diluted in acetone and an aliquot is thoroughly mixed into 500 grams of dry, sandy loam soil. The treated soil is placed in a pint ice cream carton and a nasturtium plant (Tropaeolum sp.) approximately 5 cm tall is transplanted into the carton. The plant is then infested with approximately 25 black bean aphids of mixed ages and placed in the greenhouse. Seven days later mortality is recorded. The primary screening level for this test is 10 ppm by weight of the test compound in the soil.
as §1, §2

Data set [11] concerns Two-Spotted Mite [Tetranychus urticae (Koch)]. Briefly: Two-spotted mite plant dip test. Particulars: tested at primary screening level 0.05% only, < means more than 50% kill, > less than 50% kill, 7 days. As to the method:
J. Two-Spotted Mite [Tetranychus urticae (Koch)]
A pinto bean plant (Phaseolus sp.), approximately 10 cm tall is transplanted into sandy loam soil in a 3-inch clay pot and infested with two-spotted mites of mixed ages and sexes. Twenty-four hours later the infested plants are inverted and dipped for 2-3 seconds in a 50-50 acetone-water solution of the test compound. The treated plant is held in a greenhouse for 7 days. Mortality is then determined for both the adult mites and the nynmphs hatching from eggs which were on the plants at the time of treatment. The primary screening level for this test is 0.05% by weight of the test compound in the acetone-water solution.
as §1

Each structure is given as a SMILES string. Bounds are passed on as bounds.

Regarding `COP(=S)(OC)SCC(=O)Nc1csc(NC(=O)CSP(=S)(OC)OC)n1` [Compound 2, 2,4-Bis(O,O -dimethylphosphorodithioylacetamide)thiazole], the “Approximate LD50, HF (housefly)” value in data set [1] was more than 100 µg. Also, the “Approximate LD50, SMC (salt-marsh caterpillar)” value (shortened to “Approximate LD50, SMC”) in [2] is “> .05%”. The “Approximate LD50, CL (cabbage looper)” value in [3] is “> .1%”. The “Approximate LD50, GPA (green peach aphid)” value (shortened to “Approximate LD50, GPA”) in data set [4] is “.03%”. Further, in data set [5], the “Approximate LD50, LB (Lygus bug)” value is “> .05%”. Also, in data set [6], the “Approximate LD50, TBW (tobacco budworm)” value is reported as “> .1%”. Also, in [7], the “Approximate LD50, GR (German cockroach)” value is “> .1%”. For the same compound, the “Approximate LD50, BBA (black bean aphid)” value in [8] was “.002%”. Besides, the LC50 in data set [9] (read-out: Approximate LD50, MOS (Southern house mosquito)) was more than 1 µg/mL. For the same compound, the “Approximate LD50, BAS (bean aphid systemic)” value (shortened to “Approximate LD50, BAS”) in data set [10] was more than 10 ppm. In [11], the “Approximate LD50, 2SM (two-spotted mite) (2) eggs” value (shortened to “Approximate LD50, 2SM … (2) eggs”) is “> .05%” and the “Approximate LD50, 2SM (two-spotted mite) (1) post-embryonic” value (from here on “Approximate LD50 … (1) post-embryonic”) is recorded as “< .05%”.

Regarding `CCOP(=S)(OCC)SCC(=O)Nc1csc(NC(=O)CSP(=S)(OCC)OCC)n1` [Compound 1], in data set [1], the “Approximate LD50, HF (housefly)” value was more than 100 µg. Further, the “Approximate LD50, SMC” value in data set [2] was “> .05%”. The “Approximate LD50, CL (cabbage looper)” value in [3] is recorded as “> .1%”. In addition, in [5], the “Approximate LD50, LB (Lygus bug)” value is recorded as “> .05%”. The “Approximate LD50, TBW (tobacco budworm)” value in data set [6] is given as “> .1%”. In addition, in data set [7], the “Approximate LD50, GR (German cockroach)” value is reported as “> .1%”. Besides, the “Approximate LD50, BBA (black bean aphid)” value in [8] is listed as “.05%”. The “Approximate LD50, MOS (Southern house mosquito)” value (shortened to “Approximate LD50, MOS”) in [9] is recorded as “.8 ppm”. Besides, the “Approximate LD50, BAS” value in [10] is given as more than 10 ppm. Moreover, in [11], the “Approximate LD50, 2SM … (2) eggs” value is “< .05%” and the “Approximate LD50 … (1) post-embryonic” value is on record as “< .05%”.

Consider `COP(=S)(OC)SCC(=O)Nc1nc(NC(=O)CSP(=S)(OC)OC)c(-c2ccccc2)s1` [Compound 9], for which the “Approximate LD50, HF (housefly)” value in data set [1] is more than 100 µg. Also, in data set [2], the “Approximate LD50, SMC” value is reported as “> .05%”. Moreover, the “Approximate LD50, CL (cabbage looper)” value in [3] is given as “> .5%”. Also, the “Approximate LD50, GPA” value in [4] is “.15%”. Also, the “Approximate LD50, BBA (black bean aphid)” value in data set [8] is on record as “.2%”. Besides, the “Approximate LD50, MOS” value in [9] is more than 1.0 ppm. In data set [11], the “Approximate LD50, 2SM … (2) eggs” value is “< .05%” and the “Approximate LD50 … (1) post-embryonic” value was “> .05%”.

With `CCOP(=O)(OCC)SCC(=O)Nc1csc(NC(=O)CSP(=O)(OCC)OCC)n1` [Compound 8], the “Approximate LD50, HF (housefly)” value in [1] is more than 100 µg. Besides, in [2], the “Approximate LD50, SMC” value was “> .05%”. Besides, the “Approximate LD50, CL (cabbage looper)” value in data set [3] was “> .1%”. The “Approximate LD50, GPA” value in [4] is reported as “.03%”. Also, in [5], the “Approximate LD50, LB (Lygus bug)” value is “> .05%”. The “Approximate LD50, TBW (tobacco budworm)” value in data set [6] is given as “> .1%”. In addition, the “Approximate LD50, GR (German cockroach)” value in data set [7] is “> .1%”. The “Approximate LD50, BBA (black bean aphid)” value in [8] is listed as “.001%”. In addition, the “Approximate LD50, MOS” value in data set [9] is more than 1.0 ppm. In addition, the “Approximate LD50, BAS” value in data set [10] is given as more than 10 ppm. In data set [11], the “Approximate LD50, 2SM … (2) eggs” value is reported as “< .05%” and the “Approximate LD50 … (1) post-embryonic” value was “< .05%”.

The values are drawn from patent US4086239A, “Thiazole bis-phosphates and phosphonates, intermediates, and insecticidal compositions and methods” (priority 1977, dated 1978).
